Reference: PubChem BioAssay (NCI)
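Dose response: 5 concentrations. Exposure: 48 h. Format: 96-well plates. Endpoint: linear interpolation; highest concentration if not reached. GI50 is the concentration that inhibits growth by half. TGI: total growth inhibition.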

Experiments:
Assay in all cases: NCI anticancer screen, dose series, 48 h; in the data active means GI50 below about 0.43 µM; inactive means the rest
SK-OV-3 ovarian = tested on: SK-OV-3 ovarian
COLO 205 colon = tested on: COLO 205 colon
ACHN renal = tested on: ACHN renal
SN12C renal = tested on: SN12C renal
RPMI-8226 leukemia = tested on: RPMI-8226 leukemia
PC-3 prostate = tested on: PC-3 prostate
SK-MEL-5 melanoma = tested on: SK-MEL-5 melanoma
NCI-H226 lung = tested on: NCI-H226 lung
HOP-62 NSCLC = tested on: HOP-62 NSCLC
NCI/ADR-RES ovarian = tested on: NCI/ADR-RES ovarian
MOLT-4 leukemia = tested on: MOLT-4 leukemia
HS 578T breast = tested on: HS 578T breast
SR leukemia = tested on: SR leukemia
SF-295 CNS = tested on: SF-295 CNS
DU-145 prostate = tested on: DU-145 prostate
NCI-H522 lung = tested on: NCI-H522 lung
HT29 colon = tested on: HT29 colon
K-562 leukemia = tested on: K-562 leukemia
BT-549 breast = tested on: BT-549 breast
SF-268 CNS = tested on: SF-268 CNS
A549 NSCLC = tested on: A549 NSCLC
HL-60(TB) leukemia = tested on: HL-60(TB) leukemia
SK-MEL-2 melanoma = tested on: SK-MEL-2 melanoma
UO-31 renal = tested on: UO-31 renal
SNB-75 CNS = tested on: SNB-75 CNS
786-0 renal = tested on: 786-0 renal
SK-MEL-28 melanoma = tested on: SK-MEL-28 melanoma
IGROV1 ovarian = tested on: IGROV1 ovarian

Nc1nc(/C=C\c2ccc([N+](=O)[O-])cc2)nc(N2CCN(c3ccccc3)CC2)n1
50.5 µM: TGI (NCI-H522 lung)
77.3 µM: TGI (NCI/ADR-RES ovarian)
77 µM: TGI (SK-OV-3 ovarian)
67.6 µM: TGI (PC-3 prostate)
> 100 µM: TGI (ACHN renal) | TGI (SN12C renal) | TGI (RPMI-8226 leukemia) | TGI (NCI-H226 lung) | TGI (HOP-62 NSCLC) | TGI (MOLT-4 leukemia) | TGI (HS 578T breast) | TGI (SF-295 CNS) | TGI (DU-145 prostate) | TGI (HT29 colon) | TGI (BT-549 breast) | TGI (SF-268 CNS) | TGI (A549 NSCLC) | TGI (UO-31 renal) | TGI (SNB-75 CNS) | TGI (786-0 renal) | TGI (SK-MEL-28 melanoma)
33.1 µM: TGI (SK-MEL-5 melanoma)
60.2 µM: TGI (SR leukemia)
55.2 µM: TGI (COLO 205 colon)
81.3 µM: TGI (SK-MEL-2 melanoma)
inactive: GI50 (SK-OV-3 ovarian) 28.7 µM | GI50 (COLO 205 colon) 19 µM | GI50 (ACHN renal) 30.2 µM | GI50 (SN12C renal) 42.3 µM | GI50 (RPMI-8226 leukemia) 22.9 µM | GI50 (PC-3 prostate) 23.7 µM | GI50 (SK-MEL-5 melanoma) 18.2 µM | GI50 (NCI-H226 lung) 40.8 µM | GI50 (HOP-62 NSCLC) 36.2 µM | GI50 (NCI/ADR-RES ovarian) 25.3 µM | GI50 (MOLT-4 leukemia) 27.4 µM | GI50 (HS 578T breast) 80 µM | GI50 (SR leukemia) 21.3 µM | GI50 (SF-295 CNS) 38.4 µM | GI50 (DU-145 prostate) 40 µM | GI50 (NCI-H522 lung) 18.4 µM | GI50 (HT29 colon) 35.3 µM | GI50 (K-562 leukemia) 26.5 µM | GI50 (BT-549 breast) 35.7 µM | GI50 (SF-268 CNS) 96.7 µM | GI50 (A549 NSCLC) 38.2 µM | GI50 (HL-60(TB) leukemia) 20 µM | GI50 (SK-MEL-2 melanoma) 30.2 µM | GI50 (UO-31 renal) 27.7 µM | GI50 (SNB-75 CNS) 39.8 µM | GI50 (786-0 renal) 45.8 µM | GI50 (SK-MEL-28 melanoma) 41.7 µM | GI50 (IGROV1 ovarian) 20.1 µM
54.1 µM: TGI (IGROV1 ovarian)
58.9 µM: TGI (HL-60(TB) leukemia)
79.6 µM: TGI (K-562 leukemia)
